The assay has as its target T1, estrogen receptor (Homo sapiens, UniProt P03372).
T1 construct: endogenous in cells; host or cells: ECC-1 cells
T1 sequence (P03372 1-595): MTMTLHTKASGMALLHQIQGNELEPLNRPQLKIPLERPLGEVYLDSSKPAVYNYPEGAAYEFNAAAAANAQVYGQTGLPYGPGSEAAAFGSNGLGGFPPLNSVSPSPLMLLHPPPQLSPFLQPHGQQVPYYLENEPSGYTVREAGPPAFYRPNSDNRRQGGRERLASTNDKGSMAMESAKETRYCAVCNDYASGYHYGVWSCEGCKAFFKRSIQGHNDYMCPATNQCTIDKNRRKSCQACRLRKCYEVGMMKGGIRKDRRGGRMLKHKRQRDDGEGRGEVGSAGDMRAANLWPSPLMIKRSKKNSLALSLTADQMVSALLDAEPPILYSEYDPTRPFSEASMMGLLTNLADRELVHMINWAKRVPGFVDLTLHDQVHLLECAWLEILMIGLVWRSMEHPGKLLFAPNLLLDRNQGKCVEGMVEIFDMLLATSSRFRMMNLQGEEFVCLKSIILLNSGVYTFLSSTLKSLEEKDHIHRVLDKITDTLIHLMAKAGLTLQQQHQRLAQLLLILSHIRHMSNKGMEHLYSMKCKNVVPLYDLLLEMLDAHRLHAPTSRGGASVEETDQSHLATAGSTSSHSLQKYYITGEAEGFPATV
Put plainly: AP (alkaline phosphatase) assay in ECC-1 cells, agonist mode and antagonist mode. The format is cell-based. The following applies: 3 days, absence of E2 (agonist mode) or 500 pM E2 (antagonist mode), AP activity normalized to 500 pM E2 alone. The procedure:
ECC-1 cells were trypsinized and resuspended in hormone-depleted media and plated at a density of 15 k cells per well into a 96-well plate for at least 4 hours. Cells were treated with test compounds in the absence of E2 (for agonist mode) or in the presence of 500 pM E2 (for antagonist mode) for 3 days and plates were subsequently frozen at −80° C. Thawed plates were incubated with a chromogenic substrate of AP, p-nitrophenyl phosphate (Thermo Fisher Scientific), for 40 minutes at 42° C., and absorbances were read at 405 nm. AP activity was normalized to the activity of 500 pM E2 alone.
The compound numbers correspond to the compound numbers of Table 1 and 2. Compounds having an activity designated as “+” provided estrogen receptor agonism having (i) at least 80% increase in the E2-normalized signal in the AP assay (agonist mode) and (ii) no more than 80% reduction in the E2-normalized signal in the AP assay (antagonist mode). Compounds having an activity designated as “++” provided estrogen receptor antagonism having (i) between 10% and 80% increase in the E2-normalized signal in the AP assay (agonist mode) and (ii) between 10% and 80% reduction in the E2-normalized signal in the AP assay (antagonist mode).

With `C[C@@H]1Cc2c([nH]c3ccccc23)[C@@H](c2ncc(O[C@@H]3CCN(CCCF)C3)s2)N1CC(C)(C)F` [Example I-11, 2-[(1S,3R)-2-(2-fluoro-2-methyl-propyl)-3-methyl-1,3,4,9-tetrahydropyrido[3,4-b]indol-1-yl]-5-[(3R)-1-(3-fluoropropyl)pyrrolidin-3-yl]oxy-thiazole], the “Activity (estrogen receptor modulation, agonism and antagonism)” value (“Activity” below) was “++ (estrogen receptor antagonism having (i) between 10% and 80% increase in the E2-normalized signal in the AP assay (agonist mode) and (ii) between 10% and 80% reduction in the E2-normalized signal in the AP assay (antagonist mode))”.

`CCCN1CC(Oc2ncc([C@@H]3c4[nH]c5ccccc5c4C[C@@H](C)N3CC(C)(C)F)s2)C1` [Example I-3, 5-[(1S,3R)-2-(2-fluoro-2-methylpropyl)-3-methyl-1H,2H,3H,4H,9H-pyrido[3,4-b]indol-1-yl]-2-[(1-propylazetidin-3-yl)oxy]-1,3-thiazole]: the “Activity” value is “++ (estrogen receptor antagonism having (i) between 10% and 80% increase in the E2-normalized signal in the AP assay (agonist mode) and (ii) between 10% and 80% reduction in the E2-normalized signal in the AP assay (antagonist mode))”.

On to `C[C@@H]1Cc2c([nH]c3ccccc23)[C@@H](c2ccc(O[C@@H]3CCN(CCF)C3)s2)N1CC(C)(C)F` [Example I-17, (1S,3R)-1-[5-[(3R)-1-(2-fluoroethyl)pyrrolidin-3-yl]oxy-2-thienyl]-2-(2-fluoro-2-methyl-propyl)-3-methyl-1,3,4,9-tetrahydropyrido[3,4-b]indole], for which the “Activity” value is “+ (estrogen receptor agonism having (i) at least 80% increase in the E2-normalized signal in the AP assay (agonist mode) and (ii) no more than 80% reduction in the E2-normalized signal in the AP assay (antagonist mode))”.

For the molecule `C[C@@H]1Cc2c([nH]c3ccccc23)[C@@H](c2ccc(O[C@@H]3CCN(CCC(F)F)C3)s2)N1CC(C)(C)F` [Example I-15, (1S,3R)-1-[5-[(3R)-1-(3,3-difluoropropyl)pyrrolidin-3-yl]oxy-2-thienyl]-2-(2-fluoro-2-methyl-propyl)-3-methyl-1,3,4,9-tetrahydropyrido[3,4-b]indole], the “Activity” value is “+ (estrogen receptor agonism having (i) at least 80% increase in the E2-normalized signal in the AP assay (agonist mode) and (ii) no more than 80% reduction in the E2-normalized signal in the AP assay (antagonist mode))”.

`C[C@@H]1Cc2c([nH]c3ccccc23)[C@@H](c2ccc(OC3CN(CCCF)C3)s2)N1CC(C)(C)F` [Example I-2, 3-({5-[(1S,3R)-2-(2-fluoro-2-methylpropyl)-3-methyl-1H,2H,3H,4H,9H-pyrido[3,4-b]indol-1-yl]thiophen-2-yl}oxy)-1-(3-fluoropropyl)azetidine]: the “Activity” value was “++ (estrogen receptor antagonism having (i) between 10% and 80% increase in the E2-normalized signal in the AP assay (agonist mode) and (ii) between 10% and 80% reduction in the E2-normalized signal in the AP assay (antagonist mode))”.

Turning to `C[C@@H]1Cc2c([nH]c3ccccc23)[C@@H](c2cnc(O[C@@H]3CCN(CCCF)C3)s2)N1CC(C)(C)F` [Example I-23, 5-[(1S,3R)-2-(2-fluoro-2-methyl-propyl)-3-methyl-1,3,4,9-tetrahydropyrido[3,4-b]indol-1-yl]-2-[(3R)-1-(3-fluoropropyl)pyrrolidin-3-yl]oxy-thiazole], the “Activity” value is “+++ (estrogen receptor antagonism (i) with pIC50 greater than 7.5 and at least a 10% reduction in the E2-normalized signal in the AP assay (antagonist mode); and no more than 10% increase in E2-normalized signal in the AP assay (agonist mode))”.

For `C[C@@H]1Cc2c([nH]c3ccccc23)[C@@H](c2cnc(O[C@@H]3C[C@H](C)N(CCCF)C3)s2)N1CC(F)(F)CO` [Example I-29, 2,2-difluoro-3-((1S,3R)-1-(2-(((3R,5S)-1-(3-fluoropropyl)-5-methylpyrrolidin-3-yl)oxy)thiazol-5-yl)-3-methyl-1,3,4,9-tetrahydro-2H-pyrido[3,4-b]indol-2-yl)propan-1-ol], the “Activity” value was “+ (estrogen receptor agonism having (i) at least 80% increase in the E2-normalized signal in the AP assay (agonist mode) and (ii) no more than 80% reduction in the E2-normalized signal in the AP assay (antagonist mode))”.

With `CCCN1CC[C@@H](Oc2ccc([C@@H]3c4[nH]c5ccccc5c4C[C@@H](C)N3CC(C)(C)F)s2)C1` [Example I-10, (1S,3R)-2-(2-fluoro-2-methyl-propyl)-3-methyl-1-[5-[(3R)-1-propylpyrrolidin-3-yl]oxy-2-thienyl]-1,3,4,9-tetrahydropyrido[3,4-b]indole], the “Activity” value is “+ (estrogen receptor agonism having (i) at least 80% increase in the E2-normalized signal in the AP assay (agonist mode) and (ii) no more than 80% reduction in the E2-normalized signal in the AP assay (antagonist mode))”.

On to `C[C@@H]1Cc2c([nH]c3ccccc23)[C@@H](c2cnc(O[C@@H]3CCN(CCCF)[C@H]3C)s2)N1CC(F)(F)CO` [Example I-34, 2,2-difluoro-3-[(1S,3R)-1-[2-[(2S,3R)-1-(3-fluoropropyl)-2-methyl-pyrrolidin-3-yl]oxythiazol-5-yl]-3-methyl-1,3,4,9-tetrahydropyrido[3,4-b]indol-2-yl]propan-1-ol], for which the “Activity” value is “+ (estrogen receptor agonism having (i) at least 80% increase in the E2-normalized signal in the AP assay (agonist mode) and (ii) no more than 80% reduction in the E2-normalized signal in the AP assay (antagonist mode))”.

Consider `C[C@@H]1Cc2c([nH]c3ccccc23)[C@@H](c2cnc(O[C@H]3CN(CCCF)C[C@@H]3F)s2)N1CC(F)(F)CO` [Example I-32, 2,2-difluoro-3-[(1S,3R)-1-[2-[(3S,4S)-4-fluoro-1-(3-fluoropropyl)pyrrolidin-3-yl]oxythiazol-5-yl]-3-methyl-1,3,4,9-tetrahydropyrido[3,4-b]indol-2-yl]propan-1-ol], for which the “Activity” value is “+ (estrogen receptor agonism having (i) at least 80% increase in the E2-normalized signal in the AP assay (agonist mode) and (ii) no more than 80% reduction in the E2-normalized signal in the AP assay (antagonist mode))”.

With `C[C@@H]1Cc2c([nH]c3ccccc23)[C@@H](c2cnc(O[C@@H]3CCN(CCCF)C3)s2)N1CC(F)(F)CO` [Example I-28, 2,2-difluoro-3-[(1S,3R)-1-[2-[(3R)-1-(3-fluoropropyl)pyrrolidin-3-yl]oxythiazol-5-yl]-3-methyl-1,3,4,9-tetrahydropyrido[3,4-b]indol-2-yl]propan-1-ol], the “Activity” value is “+++ (estrogen receptor antagonism (i) with pIC50 greater than 7.5 and at least a 10% reduction in the E2-normalized signal in the AP assay (antagonist mode); and no more than 10% increase in E2-normalized signal in the AP assay (agonist mode))”.

`C[C@@H]1Cc2c([nH]c3ccccc23)[C@@H](c2ncc(O[C@H]3CCN(CCCF)C3)s2)N1CC(C)(C)F` [Example I-6, 2-[(1S,3R)-2-(2-fluoro-2-methylpropyl)-3-methyl-1H,2H,3H,4H,9H-pyrido[3,4-b]indol-1-yl]-5-{[(3S)-1-(3-fluoropropyl)pyrrolidin-3-yl]oxy}-1,3-thiazole]: the “Activity” value is “++ (estrogen receptor antagonism having (i) between 10% and 80% increase in the E2-normalized signal in the AP assay (agonist mode) and (ii) between 10% and 80% reduction in the E2-normalized signal in the AP assay (antagonist mode))”.

For `C[C@@H]1Cc2c([nH]c3ccccc23)[C@@H](c2ccc(O[C@@H]3CCN(CCCF)C3)s2)N1CC(C)(C)F` [Example I-5, (3R)-3-({5-[(1S,3R)-2-(2-fluoro-2-methylpropyl)-3-methyl-1H,2H,3H,4H,9H-pyrido[3,4-b]indol-1-yl]thiophen-2-yl}oxy)-1-(3-fluoropropyl)pyrrolidine], the “Activity” value was “+ (estrogen receptor agonism having (i) at least 80% increase in the E2-normalized signal in the AP assay (agonist mode) and (ii) no more than 80% reduction in the E2-normalized signal in the AP assay (antagonist mode))”.

Turning to `C[C@@H]1Cc2c([nH]c3ccccc23)[C@@H](c2cnc(O[C@@H]3CON(CCCF)C3)s2)N1CC(F)(F)CO` [Example I-36, 2,2-difluoro-3-[(1S,3R)-1-[2-[(4S)-2-(3-fluoropropyl)isoxazolidin-4-yl]oxythiazol-5-yl]-3-methyl-1,3,4,9-tetrahydropyrido[3,4-b]indol-2-yl]propan-1-ol], the “Activity” value is “+ (estrogen receptor agonism having (i) at least 80% increase in the E2-normalized signal in the AP assay (agonist mode) and (ii) no more than 80% reduction in the E2-normalized signal in the AP assay (antagonist mode))”.

The record behind these values is patent publication US20260103461A1, “ESTROGEN RECEPTOR MODULATORS AND USES THEREOF” (Olema Pharmaceuticals, Inc., priority 2022, published 2026).
